Data reported in patent US6870028B1 (priority 1995, dated 2005).
In brackets after ≈: the same amount, converted by molar mass. Where two headings read alike, the source gives them in different places.

Columns and labels:
[1] = tested on: human glioblastoma/astrocytoma U373; test: in vitro cytotoxicity versus human glioblastoma/astrocytoma U373; format: cell-based; conditions: for IC50: U373 MG
Method: (§1) Coupling of the peptide A-B to amino acid moiety of C (5) was carried out in a similar way. [drawing 25] [drawing 26] [drawing 27] Testing of Compounds • 1. The cytotoxicity of compounds described herein have been tested as described in J. Immunol. Methods, 65, 55-63, 1983 and the results are provided in Table 4 below, wherein P388 refers to in vitro test versus murine leukaemia P388, U373 refers to in vitro human glioblastoma/astrocytoma U373, HEY refers to in vitro human ovarian carcinoma HEY, MCF7 refers to in vitro human breast cancer MCF7. • 2.

[2] = tested on: human ovarian carcinoma HEY; test: in vitro cytotoxicity versus human ovarian carcinoma HEY; format: cell-based
Method: as §1

[3] = tested on: human mammary carcinoma MCF7 cells; test: antimitotic activity, percentage of mitotic cells in chromosome spreads; format: cell-based; conditions: for IC50: Homo sapiens; for IC50 / antimitotic activity, in words: 20 h treatment
Method: • 3. Compounds described herein were comparatively tested for their antimitotic activity against human mammary carcinoma MCF7 cells.
MCF7 cells were grown as a monolayer in RPMI supplemented with 15% fetal calf serum and antibiotics at 37° C. in humidified 10% CO2. All compounds were dissolved in dimethyl sulfoxide except for vinblastine (a known drug) which was a 1 mg/ml solution in physiological saline. Exponentially growing MCF7 cells were treated with different drug concentrations for 20 h, prepared for chromosome spreads, and the percentage of mitotic cells determined by fluorescence microscopy. Hemiasterlin, Hemiasterlin A and modified compounds were very potent antimitotic agents, with IC50 values of 0.3 nM and 3 nM respectively.

[4] = tested on: MCF7 cells; test: morphology of mitotic spindles by indirect immunofluorescence (β-tubulin antibody, bisbenzimide); format: cell-based, human
Description: The effect of Hemiasterlin and Hemiasterlin A on the morphology of their mitotic spindles was examined by indirect immunofluorescence using a monoclonal antibody to β-tubulin and the distribution of their chromosomes using the fluorescent DNA dye bisbenzimide.

[5] = tested on: murine leukaemia P388; test: in vitro cytotoxicity versus murine leukaemia P388; format: cell-based; conditions: Mus musculus
Method: as §1

[6] = tested on: human breast cancer MCF7; test: in vitro cytotoxicity versus human breast cancer MCF7; format: cell-based
Method: as §1

[7] = tested on: P388 leukaemia cells; test: in vivo P388 leukaemia model in mice
[8] = read-out: IC50 Values cell mitosis

`C=C1C[C@H](C)C(=O)N[C@@H](C)C(=O)N(C)[C@H](Cc2ccc(O)c(I)c2)C(=O)N[C@@H](C)C(=O)O[C@@H](C)C[C@@H](C)C1=O` [Compound 1, Geodiamolide G] was tested, and the “IC50 Values U373” value [1] was 7.7 µg/mL (≈ 11700 nM) and the “IC50 Values HEY” value [2] was 8.6 µg/mL (≈ 13100 nM).

Work on `CN[C@H](C(=O)N[C@H](C(=O)N(C)[C@H](CC(C)C(=O)O)C(C)C)C(C)(C)C)C(C)(C)c1cn(C)c2ccccc12` (stereo partly shown) yielded an IC50 [3, 8] of 1.06 ng/mL.

`CC[C@]1(O)C[C@@H]2CN(CCc3c([nH]c4ccccc34)[C@@](C(=O)OC)(c3cc4c(cc3OC)N(C)[C@H]3[C@@](O)(C(=O)OC)[C@H](OC(C)=O)[C@]5(CC)C=CCN6CC[C@]43[C@@H]65)C2)C1` [Vinblastine] was tested, and the mitotic spindle morphology ([4]; half-maximal concentrations) was “produced the same types of abnormal spindle as hemiasterlin A” and the effect on microtubules ([4]; high concentrations) was “microtubule depolymerisation in mitotic cells”.

For `CN[C@H](C(=O)N[C@H](C(=O)N(C)[C@H](/C=C(\C)C(=O)O)C(C)C)C(C)C)C(C)(C)c1c[nH]c2ccccc12` [Compound 3, Hemiasterlin B], the IC50 [5] was 7 ng/mL (≈ 14 nM), the IC50 [2] was 0.016 µg/mL (≈ 32.1 nM) and the IC50 [6] was 0.015 µg/mL (≈ 30.1 nM). It also gave an IC50 [3, 8] of 9.96 ng/mL.

For `CN[C@H](C(=O)N[C@H](C(=O)N(C)[C@H](/C=C(\C)C(=O)N[C@@H](CCCNC(=N)N)C(=O)O)C(C)C)C(C)(C)C)C(C)(C)c1c[nH]c2ccccc12`, the IC50 [5] was 7.3 ng/mL (≈ 10.9 nM), the IC50 [1] was 0.27 µg/mL (≈ 404 nM) and the IC50 [2] was 0.19 µg/mL (≈ 284 nM). For the same compound, the IC50 [6] was 6.8 µg/mL (≈ 10200 nM).

In the case of `COC(=O)Nc1nc2ccc(C(=O)c3cccs3)cc2[nH]1` [Nocodazole], the mitotic spindle morphology ([4]; half-maximal concentrations) is reported as “produced the same types of abnormal spindle as hemiasterlin A” and the effect on microtubules ([4]; high concentrations) is reported as “microtubule depolymerisation in mitotic cells”.

For `CN[C@H](C(=O)N[C@H](C(=O)N(C)[C@H](/C=C(\C)C(=O)O)C(C)C)C(C)(C)C)C(C)(C)c1cn(C)c2ccccc12` [Compound A, Hemiasterlin], the IC50 [5] was 0.0457 ng/mL (≈ 0.0868 nM), the IC50 [1] was 0.012 µg/mL (≈ 22.8 nM) and the IC50 [2] was 0.0014 µg/mL (≈ 2.66 nM). For the same compound, the IC50 [6] was 0.000158 µg/mL (≈ 0.3 nM), the “antimitotic activity, in words” value [3] was “more potent than Taxol, Vinblastine and Nocodazole” and the IC50 [3, 8] was 0.158 ng/mL. The IC50 ([3]; read-out: antimitotic IC50) was 0.3 nM, the “in vivo tests, result in words” value ([7]; in vivo tests per NIH Publication No. 84-2635) was “cytotoxic” and the long term survivors ([7]; mice injected with 1×10^6 P388 leukaemia cells, 5 daily doses of 0.45 μg) was “several long term survivors”. For the same compound, the “%TC” value ([7]; mice injected with 1×10^6 P388 leukaemia cells, 5 daily doses of 0.45 μg begun 24 hours after implantation) was 223%.

`CN[C@H](C(=O)N[C@H](C(=O)N(C)[C@H](/C=C(\C)C(=O)OC)C(C)C)C(C)(C)C)C(C)(C)c1cn(C)c2ccccc12` gave an IC50 [6] of 0.0054 µg/mL (≈ 9.99 nM) and an IC50 [3, 8] of 0.216 ng/mL.

Work on `CN[C@H](C(=O)N[C@H](C(=O)N(C)[C@H](/C=C(\C)C(=O)O)C(C)C)C(C)(C)C)C(C)(C)c1c[nH]c2ccccc12` [Compound 2, Hemiasterlin A] yielded an IC50 [5] of 0.00171 ng/mL (≈ 0.00334 nM), an IC50 [1] of 0.0015 µg/mL (≈ 2.93 nM) and an IC50 [2] of 0.0076 µg/mL (≈ 14.8 nM). For the same compound, the IC50 [6] was 0.00154 µg/mL (≈ 3 nM), the “lowest concentration causing maximal mitotic arrest” value [3] was 10 nM and the “antimitotic activity, in words” value [3] was “more potent than Taxol, Vinblastine and Nocodazole”. For the same compound, the IC50 [3, 8] was 1.02 ng/mL, the IC50 ([3]; read-out: antimitotic IC50) was 3 nM and the mitotic spindle morphology ([4]; at 2 nM) was “no completely normal spindles were seen”. For the same compound, the effect on microtubules ([4]; at 10 nM) was “caused microtubule depolymerisation in mitotic cells”.

`CC(=O)O[C@H]1C(=O)[C@@]2(C)[C@H]([C@H](OC(=O)c3ccccc3)[C@]3(O)C[C@H](OC(=O)[C@H](O)[C@@H](NC(=O)c4ccccc4)c4ccccc4)C(C)=C1C3(C)C)[C@]1(OC(C)=O)CO[C@@H]1C[C@@H]2O` [Taxol] was tested, and the mitotic spindle morphology ([4]; half-maximal concentrations) was “produced the same types of abnormal spindle as hemiasterlin A” and the effect on microtubules ([4]; high concentrations) was “causing bundling of cytoplasmic microtubules in interphase cells and very dense multiple asters in mitotic cells”.

With `CCOC(=O)/C(C)=C/[C@H](C(C)C)N(C)C(=O)[C@@H](NC(=O)[C@@H](NC)C(C)(C)c1cn(C)c2ccccc12)C(C)C` the IC50 [6] was 0.1 µg/mL (≈ 185 nM).
